Results as given in PMC8002351, “Triterpenes and Phenolic Compounds from the Fungus Fuscoporia torulosa: Isolation, Structure Determination and Biological Activity” (Molecules, 2021).

What was measured:
[1] = DPPH assay; details: 30 min; 550 nm
Method: A method based on the description of Miser-Salihoglu E. et al. was applied. The examination was performed on a FLUOstar Optima BMG Labtech plate-reader with 96-well microplates. The samples were measured in a DMSO environment with the volume of 150 µL per sample resulting 1 mg/mL concentration. Every well contained 50 µL (100 µM) of this base solution for the absorbance measurement (30 min; 550 nm). […] For data evaluation GraphPad Prism 6.0 software was utilized. The DPPH (2,2′-diphenyl-1-picrylhydrazyl) reagent necessary for the process was supplied by from Sigma-Aldrich Hungary.

[2] = ORAC assay; details: Trolox equivalent
Method: A method based on the description of Mielnik et al. was applied. In summary, 20 µL of the samples were used in 0.01 mg/mL concentration with a 96-well black microplate. In each well, 60 µL of AAPH (12 mM final concentration) and 120 µL of fluorescein solution (70 nM final concentration) were added. The fluorescence alteration of each sample was measured for 3 h with 1.5 min cycle intervals by a FLUOstar Optima BMG Labtech plate-reader. Trolox ((±)-6-hydroxy-2,5,7,8-tetramethyl-chromane-2-carboxylic acid) was used as a standard. Both Trolox and AAPH was supplied by Sigma-Aldrich, Hungary, while Fluorescein was provided by Fluka analytical, Japan. For data analysis, the GraphPad Prism 6.0 software was used. The results were expressed as mmol Trolox equivalent per g of dry material (mmloTE/g).

[3] = tested on: Colo 205; assay: Assay for cytotoxic effect (MTT); type: cell-based, human; details: for IC50: sensitive Colo 205 cells, MTT, 24 h
Method: (§1) The human colon adenocarcinoma cell lines, the Colo 205 (ATCC-CCL-222) doxorubicin-sensitive parent and Colo 320/MDR-LRP (ATCC-CCL-220.1) resistant to anticancer agents expressing ABCB1, were purchased from LGC Promochem (Teddington, UK). The cells were cultured in RPMI-1640 medium supplemented with 10% heat-inactivated fetal bovine serum (FBS), 2 mM L-glutamine, 1 mM Na-pyruvate, 100 mM Hepes, nystatin, and a penicillin–streptomycin mixture in concentrations of 100 U/L and 10 mg/L, respectively. The MRC-5 (ATCC CCL-171) human embryonic lung fibroblast cell line (LGC Promochem) was cultured in EMEM medium, supplemented with 1% nonessential amino acid (NEAA) mixture, 10% heat-inactivated FBS, 2 mM L-glutamine, 1 mM Na-pyruvate, nystatin, and a penicillin–streptomycin mixture in concentrations of 100 U/L and 10 mg/L, respectively. The cell lines were incubated in a humidified atmosphere (5% CO2, 95% air) at 37 °C.
(§2) The effects of increasing concentrations of the compounds on cell growth were tested in 96-well flat-bottomed microtiter plates. The two-fold serial dilutions of the tested compounds were made starting with 100 μM. Then, 10^4 of human colonic adenocarcinoma cells in 100 μL of the medium (RPMI-1640) were added to each well, except for the medium control wells. The adherent human embryonic lung fibroblast cell line (10^4/well) was seeded in EMEM medium in 96-well flat-bottomed microtiter plates for 4 h before the assay. The serial dilutions of the compounds were made in a separate plate starting with 100 μM, and then transferred to the plates containing the adherent corresponding cell line. Culture plates were incubated at 37 °C for 24 h; at the end of the incubation period, 20 μL of MTT (thiazolyl blue tetrazolium bromide) solution (from a 5 mg/mL stock solution) were added to each well. After incubation at 37 °C for 4 h, 100 μL of sodium dodecyl sulfate (SDS) solution (10% SDS in 0.01 M HCl) were added to each well and the plates were further incubated at 37 °C overnight. Cell growth was determined by measuring the optical density (OD) at 540 nm (ref. 630 nm) with a Multiscan EX ELISA reader (Thermo Labsystems, Cheshire, WA, USA). Inhibition of cell growth was expressed as IC50 values, defined as the inhibitory dose that reduces the growth of the cells exposed to the tested compounds by 50%. IC50 values and the SD of triplicate experiments were calculated using GraphPad Prism software version 5.00 for Windows with nonlinear regression curve fit (GraphPad Software, San Diego, CA, USA; www.graphpad.com). The statistical analysis of data was performed using GraphPad Prism software version 5.00, applying the two-tailed t-test.

[4] = tested on: Colo 320; assay: Assay for cytotoxic effect (MTT); type: cell-based, human; details: for IC50: resistant Colo 320 cells, MTT, 24 h
Method: as §1, §2

[5] = tested on: MRC-5; assay: Assay for cytotoxic effect (MTT); type: cell-based, human; details: for IC50: normal MRC-5 embryonal fibroblast cells, MTT, 24 h
Method: as §1, §2

[6] = tested on: Colo 320; assay: Checkerboard combination assay with doxorubicin; type: cell-based, human; details: for Fraction affected: Colo 320
Method: A checkerboard microplate method was applied to study the effect of drug interactions between the compound 8 and the chemotherapeutic drug doxorubicin. The assay was carried out on Colo 320 colon adenocarcinoma cell line. The final concentration of the compounds and doxorubicin used in the combination experiment was chosen in accordance with their cytotoxicity towards this cell line. The dilutions of doxorubicin were made in a horizontal direction for the 100 μL volume, and the dilutions of the compounds were made vertically in the microtiter plate for the 50 μL volume. Then, 6 × 10^3 of Colo 320 cells in 50 μL of the medium were added to each well, except for the medium control wells. The plates were incubated for 72 h at 37 °C in 5% CO2 atmosphere. The cell growth rate was determined after MTT staining. At the end of the incubation period, 20 μL of MTT solution (from a stock solution of 5 mg/mL) were added to each well. After incubation at 37 °C for 4 h, 100 μL of SDS solution (10% in 0.01 M HCI) were added to each well and the plates were further incubated at 37 °C overnight. OD was measured at 540 nm (ref. 630 nm) with a Multiscan EX ELISA reader. Combination index (CI) values at 50% of the growth inhibition dose (ED50) were determined using CompuSyn software (ComboSyn, Inc., Paramus, NJ, USA) to plot four to five data points at each ratio. CI values were calculated by means of the median-effect equation, according to the Chou–Talalay method, where CI < 1, CI = 1, and CI > 1 represent synergism, additive effect (or no interaction), and antagonism, respectively.

[7] = target: T1, P-glycoprotein (P-gp) (Homo sapiens, UniProt P08183); assay: Rhodamine 123 accumulation assay (flow cytometry); type: cell-based; set-up: key to FAR (fluorescence activity ratio): FAR = (Colo320 treated/control)/(Colo205 treated/control); details: for FSC / SSC: Colo 320
T1 construct: Colo 320/MDR-LRP (ATCC-CCL-220.1) resistant to anticancer agents expressing ABCB1
Method: The cell numbers of the human colon adenocarcinoma cell lines were adjusted to 2 × 10^6 cells/mL, re-suspended in serum-free RPMI 1640 medium, and distributed in 0.5 mL aliquots into Eppendorf centrifuge tubes. The tested compounds were added at concentrations of 2 or 20 μM, and the samples were incubated for 10 min at room temperature. Tariquidar was applied as positive control at 0.2 μM. DMSO at 2% v/v was used as solvent control. Next, 10 µL (5.2 µM final concentration) of the fluorochrome and ABCB1 substrate rhodamine 123 (Sigma) were added to the samples and the cells were incubated for a further 20 min at 37 °C, washed twice, and re-suspended in 1 mL PBS for analysis. The fluorescence of the cell population was measured with a PartecCyFlow® flow cytometer (Partec, Münster, Germany). The fluorescence activity ratio was calculated as the quotient between the FL-1 of the treated/untreated resistant Colo 320 cell line over the treated/untreated sensitive Colo 205 cell line according to the following equation [31]:(1) FAR = Colo320treated/Colo320control/Colo205treated/Colo205control

[8] = tested on: Escherichia coli ATCC 25922; assay: Minimum inhibitory concentration by microdilution method; type: cell-based; details: ATCC25922, broth dilution, 18 h
[9] = tested on: Salmonella enterica serovar Typhimurium 14028s; assay: as above; type: cell-based; details: broth dilution, 18 h
[10] = tested on: Staphylococcus aureus ATCC 25,923; assay: as above; type: cell-based; details: ATCC25, broth dilution, 18 h
[11] = tested on: S. aureus 27,213 (methicillin and ofloxacin resistant clinical isolate); assay: as above; type: cell-based; details: Staphylococcus aureus; broth dilution, 18 h

T1 sequence (P08183 whole entry): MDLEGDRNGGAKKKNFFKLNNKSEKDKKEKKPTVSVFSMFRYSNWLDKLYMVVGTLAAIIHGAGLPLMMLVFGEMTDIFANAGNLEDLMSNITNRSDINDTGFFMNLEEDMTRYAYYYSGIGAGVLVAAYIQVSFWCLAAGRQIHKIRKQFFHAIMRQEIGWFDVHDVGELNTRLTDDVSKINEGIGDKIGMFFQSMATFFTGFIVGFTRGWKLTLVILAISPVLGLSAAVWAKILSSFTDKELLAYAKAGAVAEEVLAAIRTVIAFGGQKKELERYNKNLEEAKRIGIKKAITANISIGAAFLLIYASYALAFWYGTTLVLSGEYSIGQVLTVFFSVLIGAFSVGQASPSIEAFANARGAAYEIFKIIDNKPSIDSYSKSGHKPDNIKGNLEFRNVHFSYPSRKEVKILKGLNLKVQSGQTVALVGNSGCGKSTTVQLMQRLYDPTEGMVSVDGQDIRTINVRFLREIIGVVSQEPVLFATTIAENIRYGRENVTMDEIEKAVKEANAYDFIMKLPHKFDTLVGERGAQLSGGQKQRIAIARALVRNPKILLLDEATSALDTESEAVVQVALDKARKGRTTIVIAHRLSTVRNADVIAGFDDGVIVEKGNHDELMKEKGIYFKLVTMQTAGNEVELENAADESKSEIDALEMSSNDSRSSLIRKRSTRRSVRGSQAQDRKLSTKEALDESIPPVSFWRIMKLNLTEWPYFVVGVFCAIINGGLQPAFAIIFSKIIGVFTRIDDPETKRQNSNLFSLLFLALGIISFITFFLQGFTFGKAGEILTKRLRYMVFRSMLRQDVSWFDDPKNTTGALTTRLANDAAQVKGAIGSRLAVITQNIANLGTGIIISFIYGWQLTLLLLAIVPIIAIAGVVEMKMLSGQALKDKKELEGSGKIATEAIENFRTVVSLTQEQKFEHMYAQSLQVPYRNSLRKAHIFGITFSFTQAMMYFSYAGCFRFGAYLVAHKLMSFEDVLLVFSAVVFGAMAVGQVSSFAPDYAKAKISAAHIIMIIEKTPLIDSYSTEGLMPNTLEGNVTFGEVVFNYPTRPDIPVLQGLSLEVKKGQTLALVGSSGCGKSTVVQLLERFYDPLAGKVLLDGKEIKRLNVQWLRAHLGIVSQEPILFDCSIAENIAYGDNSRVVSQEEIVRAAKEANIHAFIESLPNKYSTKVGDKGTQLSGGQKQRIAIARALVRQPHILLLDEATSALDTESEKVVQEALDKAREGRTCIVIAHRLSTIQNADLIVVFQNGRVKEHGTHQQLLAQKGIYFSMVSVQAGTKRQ

**Q.** Which “DPPH EC50” value [1] does the source give for `O=C1O[C@H]([C@@H](O)CO)C(O)=C1O` [Ascorbic acid, ascorbic acid] here?
**A.** 0.89 ± 0.02 µg/mL

**Q.** And the “ORAC Activity” value [2]?
**A.** 6.94 ± 0.58 mmol TE/g

**Q.** With ergosta-7,22-diene-3-one [Compound 8] as the molecule, how does the IC50 [3] read?
**A.** 11.7 ± 1.67 µM

**Q.** What about the IC50 [4] of the same molecule?
**A.** 8.43 ± 1.1 µM

**Q.** And the IC50 [5]?
**A.** 7.92 ± 1.42 µM

**Q.** And the “Dose Reduction Index (DRI) for experimental values” (from here on “Dose Reduction Index (DRI)”) ([6]; Fa 0.6829, combination FuTo III + Doxo)?
**A.** 18.211

**Q.** What about the “Dose Reduction Index (DRI)” value ([6]; Fa 0.741889, combination FuTo III + Doxo) of the same molecule?
**A.** 10.119

**Q.** What about the “Dose Reduction Index (DRI)” value ([6]; Fa 0.80679, combination FuTo III + Doxo) of the same molecule?
**A.** 5.811

**Q.** What about the “Dose Reduction Index (DRI)” value ([6]; Fa 0.912987, combination FuTo III + Doxo) of the same molecule?
**A.** 2.045

**Q.** And the Fraction affected ([6]; FuTo III alone 6.25 uM)?
**A.** 0.0295

**Q.** What about the Fraction affected ([6]; FuTo III alone 12.5 uM) of the same molecule?
**A.** 0.2522

**Q.** And the Fraction affected ([6]; FuTo III alone 25 uM)?
**A.** 0.5605

**Q.** What about the “Dm (median-effect dose) in the combination” value ([6]; FuTo III:Doxo ratio 11:1, dose of the named component, Colo 320, 72 h) of the same molecule?
**A.** 0.4671 µM

**Q.** What about the “combination index (CI) at the 50% growth inhibition dose (ED50)” value ([6]; compound 8 combined with doxorubicin, ratio 11.2:1, Colo 320, 72 h) of the same molecule?
**A.** 0.521 ± 0.15

**Q.** What about the “Dm (median-effect dose), drug alone” value ([6]; single drug, Colo 320, 72 h, CompuSyn) of the same molecule?
**A.** 21.37 µM

**Q.** And the FSC ([7]; 2 μM)?
**A.** 2099

**Q.** And the SSC ([7]; 2 μM)?
**A.** 857

**Q.** And the “FAR (fluorescence activity ratio)” value ([7]; 2 μM, Colo 320, rhodamine-123)?
**A.** 0.872

**Q.** What about the “FL-1 (mean fluorescence of the cells)” value ([7]; 2 μM, Colo 320, rhodamine-123) of the same molecule?
**A.** 10.100

**Q.** For `CC(C)=CC[C@H](O)[C@@H](C)[C@H]1CC[C@@]2(C)C3=C(CC[C@]12C)[C@@]1(C)CC[C@H](O)[C@@](C)(C(=O)O)[C@@H]1CC3` [Compound 6, senexdiolic acid], which IC50 ([3]; Homo sapiens) is on record?
**A.** > 100 µM

**Q.** What about the IC50 ([4]; Homo sapiens) of the same molecule?
**A.** > 100 µM

**Q.** What about the IC50 ([5]; Homo sapiens, MRC5) of the same molecule?
**A.** > 100 µM

**Q.** What about the FSC ([7]; 20 μM) of the same molecule?
**A.** 2074

**Q.** And the SSC ([7]; 20 μM)?
**A.** 861

**Q.** What about the “FAR (fluorescence activity ratio)” value ([7]; 20 μM, Colo 320, rhodamine-123) of the same molecule?
**A.** 1.027

**Q.** What about the MIC [8] of the same molecule?
**A.** > 100 µM

**Q.** And the MIC [9]?
**A.** > 100 µM

**Q.** What about the MIC [10] of the same molecule?
**A.** > 100 µM

**Q.** And the MIC [11]?
**A.** > 100 µM

**Q.** Which “cytotoxic effect (in words)” value ([3]; Colo 205, applied concentration up to 100 μM) does the source give for `Cc1coc(C(=O)[C@@H](C)[C@H]2CC[C@@]3(C)C4=C(CC[C@]23C)[C@@]2(C)CC[C@@](C)(C(=O)O)[C@@H]2CC4)c1` [Compound 7, natalic acid] here?
**A.** did not show any significant effect

**Q.** And the IC50 ([3]; Homo sapiens)?
**A.** > 100 µM

**Q.** And the “cytotoxic effect (in words)” value ([4]; Colo 320, applied concentration up to 100 μM)?
**A.** did not show any significant effect

**Q.** What about the IC50 ([4]; Homo sapiens) of the same molecule?
**A.** > 100 µM

**Q.** What about the IC50 ([5]; Homo sapiens, MRC5) of the same molecule?
**A.** > 100 µM

**Q.** And the “cytotoxic effect (in words)” value ([5]; MRC-5, applied concentration up to 100 μM)?
**A.** did not show any significant effect

**Q.** And the FSC ([7]; 20 μM)?
**A.** 2095

**Q.** What about the SSC ([7]; 20 μM) of the same molecule?
**A.** 891

**Q.** And the “FAR (fluorescence activity ratio)” value ([7]; 20 μM, Colo 320, rhodamine-123)?
**A.** 1.053

**Q.** What about the MIC [8] of the same molecule?
**A.** > 100 µM

**Q.** And the MIC [9]?
**A.** > 100 µM

**Q.** And the MIC [10]?
**A.** > 100 µM

**Q.** And the MIC [11]?
**A.** > 100 µM
